Measurements: PubChem BioAssay AID330 (DTP/NCI, 2004)
“And” between values parts separate entries of the source, which are not always exact repeats. Identical values can stand only once. Inconclusive results and toxic doses are left out.

Tested on: P388 leukemia ip, CD2F1 mice, survival T/C
Assay: NCI In Vivo Anticancer Drug Screen. Data for tumor model P388 Leukemia (intraperitoneal) in CD2F1 (CDF1) mice
Details: endpoint: median survival time, higher = longer survival
Procedure, shortened: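 Mice carrying the transplanted tumor received test compound or vehicle. Survival was recorded in each group, and the value is the treated-group measurement divided by that of the vehicle-treated control group.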

[1] = dose: 60.0 mg/kg/injection, schedule: Q01DX005 (ip), vehicle: saline
[2] = dose: 120.0 mg/kg/injection, schedule: Q01DX005 (ip), vehicle: saline
[3] = dose: 240.0 mg/kg/injection, schedule: Q01DX005 (ip), vehicle: saline
[4] = dose: 100.0 mg/kg/injection, schedule: Q01DX009 (ip), vehicle: saline
[5] = dose: 200.0 mg/kg/injection, schedule: Q01DX009 (ip), vehicle: saline
[6] = dose: 200.0 mg/kg/injection, schedule: Q04DX003 (ip), vehicle: Klucel (hydroxypropylcellulose) (HPC)
[7] = dose: 100.0 mg/kg/injection, schedule: Q01DX009 (ip), vehicle: saline with Tween-80
[8] = dose: 200.0 mg/kg/injection, schedule: Q01DX009 (ip), vehicle: saline with Tween-80
[9] = dose: 50.0 mg/kg/injection, schedule: Q01DX005 (ip), vehicle: saline with Tween-80
[10] = dose: 100.0 mg/kg/injection, schedule: Q01DX005 (ip), vehicle: saline with Tween-80
[11] = dose: 200.0 mg/kg/injection, schedule: Q01DX005 (ip), vehicle: saline with Tween-80
[12] = dose: 50.0 mg/kg/injection, schedule: Q01DX009 (ip), vehicle: Klucel (hydroxypropylcellulose) (HPC)
[13] = dose: 100.0 mg/kg/injection, schedule: Q01DX009 (ip), vehicle: Klucel (hydroxypropylcellulose) (HPC)
[14] = dose: 200.0 mg/kg/injection, schedule: Q01DX009 (ip), vehicle: Klucel (hydroxypropylcellulose) (HPC)

## O=C1N(c2ccccc2)C(=O)C2(N(c3ccccc3)CCN2c2ccccc2)N1c1ccccc1
dose: 100.0 mg/kg/injection, schedule: Q04DX002 (ip), vehicle: saline with Tween-80
  T/C: 88 % of control
dose: 200.0 mg/kg/injection, schedule: Q04DX002 (ip), vehicle: saline with Tween-80
  T/C: 89 % of control
dose: 400.0 mg/kg/injection, schedule: Q04DX002 (ip), vehicle: saline with Tween-80
  T/C: 88 % of control

## CN(CN1C(=O)CCC1=O)CN1C(=O)CCC1=O
dose: 30.0 mg/kg/injection, schedule: Q01DX005 (ip), vehicle: saline
  T/C: 106 % of control
[1]
  T/C: 106 % of control and 110 % of control
[2]
  T/C: 108 % of control
[3]
  T/C: 119 % of control

## Cc1c2ccn(CCCCCCCCn3ccc4c(C)c5nc6ccccc6c5c(C)c4c3)cc2c(C)c2c1nc1ccccc12
dose: 3.13 mg/kg/injection, schedule: Q04DX003 (ip), vehicle: distilled water + Tween-80
  T/C: 118 % of control and 121 % of control
dose: 25.0 mg/kg/injection, schedule: Q04DX003 (ip), vehicle: distilled water + Tween-80
  T/C: 123 % of control

## C#CCOc1ccccc1O
[4]
  T/C: 100 % of control
[5]
  T/C: 110 % of control
dose: 400.0 mg/kg/injection, schedule: Q01DX009 (ip), vehicle: saline
  T/C: 115 % of control

## C/C(=N\N=C(/[Se])N1CCCCCC1)c1ccccn1
dose: 25.0 mg/kg/injection, schedule: Q04DX003 (ip), vehicle: Klucel (hydroxypropylcellulose) (HPC)
  T/C: 110 % of control
dose: 50.0 mg/kg/injection, schedule: Q04DX003 (ip), vehicle: Klucel (hydroxypropylcellulose) (HPC)
  T/C: 118 % of control
[6]
  T/C: 86 % of control

## CCN(CC)CCC(O)(c1ccc2c(c1)OCO2)c1cc(OC)c(OC)c(OC)c1 (stereo not given)
dose: 50.0 mg/kg/injection, schedule: Q01DX005 (ip), vehicle: Klucel (hydroxypropylcellulose) (HPC)
  T/C: 103 % of control and 93 % of control and 94 % of control
dose: 200.0 mg/kg/injection, schedule: Q01DX005 (ip), vehicle: Klucel (hydroxypropylcellulose) (HPC)
  T/C: 101 % of control

## O=C(CNSc1ccc([N+](=O)[O-])cc1[N+](=O)[O-])OCc1ccccc1
dose: 50.0 mg/kg/injection, schedule: Q01DX005 (ip), vehicle: saline + Tween-80 + alcohol
  T/C: 100 % of control
dose: 100.0 mg/kg/injection, schedule: Q01DX005 (ip), vehicle: saline + Tween-80 + alcohol
  T/C: 106 % of control
dose: 200.0 mg/kg/injection, schedule: Q01DX005 (ip), vehicle: saline + Tween-80 + alcohol
  T/C: 97 % of control

## Cn1c(=O)c2[nH]c(CN(CCCl)CCCl)nc2n(C)c1=O
dose: 0.66 mg/kg/injection, schedule: Q01DX009 (ip), vehicle: saline with Tween-80
  T/C: 109 % of control
dose: 1.0 mg/kg/injection, schedule: Q01DX009 (ip), vehicle: saline with Tween-80
  T/C: 115 % of control
dose: 6.6 mg/kg/injection, schedule: Q04DX003 (ip), vehicle: saline with Tween-80
  T/C: 95 % of control
dose: 10.0 mg/kg/injection, schedule: Q04DX003 (ip), vehicle: saline with Tween-80
  T/C: 113 % of control
dose: 12.5 mg/kg/injection, schedule: Q01DX009 (ip), vehicle: saline with Tween-80
  T/C: 263 % of control
dose: 12.5 mg/kg/injection, schedule: Q04DX003 (ip), vehicle: saline with Tween-80
  T/C: 150 % of control
dose: 25.0 mg/kg/injection, schedule: Q01DX009 (ip), vehicle: saline with Tween-80
  T/C: 219 % of control
dose: 25.0 mg/kg/injection, schedule: Q04DX003 (ip), vehicle: saline with Tween-80
  T/C: 163 % of control
dose: 50.0 mg/kg/injection, schedule: Q04DX003 (ip), vehicle: saline with Tween-80
  T/C: 218 % of control

## Cc1cc(C)[nH]n1
[7]
  T/C: 110 % of control
[8]
  T/C: 105 % of control
dose: 400.0 mg/kg/injection, schedule: Q01DX009 (ip), vehicle: saline with Tween-80
  T/C: 120 % of control

## O=S(=O)(Nc1cccc(F)c1)c1ccc(F)cc1
dose: 60.0 mg/kg/injection, schedule: Q01DX005 (ip), vehicle: saline with Tween-80
  T/C: 103 % of control
dose: 120.0 mg/kg/injection, schedule: Q01DX005 (ip), vehicle: saline with Tween-80
  T/C: 99 % of control
dose: 240.0 mg/kg/injection, schedule: Q01DX005 (ip), vehicle: saline with Tween-80
  T/C: 93 % of control

## O=C1CN(C(=O)Nc2ccccc2)c2ccccc2N1
[9]
  T/C: 92 % of control
[10]
  T/C: 93 % of control
[11]
  T/C: 90 % of control

## COC(=O)C(N)Cc1ccc(O)c(O)c1 (stereo not given)
dose: 50.0 mg/kg/injection, schedule: Q01DX009 (ip), vehicle: saline
  T/C: 101 % of control
dose: 50.0 mg/kg/injection, schedule: Q08HX028 (ip), vehicle: water
  T/C: 99 % of control
[4]
  T/C: 108 % of control and 115 % of control
dose: 100.0 mg/kg/injection, schedule: Q08HX028 (ip), vehicle: water
  T/C: 102 % of control
[5]
  T/C: 111 % of control and 121 % of control
dose: 200.0 mg/kg/injection, schedule: Q08HX028 (ip), vehicle: water
  T/C: 120 % of control
dose: 800.0 mg/kg/injection, schedule: Q01DX009 (ip), vehicle: saline
  T/C: 156 % of control

## Cc1nc2cc(C)n3c(C)nnc3n2n1
[9]
  T/C: 105 % of control
[10]
  T/C: 100 % of control
[11]
  T/C: 100 % of control

## O=C1OCCOCCOCCOCCOC(=O)C1c1ccccc1
dose: 100.0 mg/kg/injection, schedule: Q04DX003 (ip), vehicle: Klucel (hydroxypropylcellulose) (HPC)
  T/C: 101 % of control
[6]
  T/C: 101 % of control
dose: 400.0 mg/kg/injection, schedule: Q04DX003 (ip), vehicle: Klucel (hydroxypropylcellulose) (HPC)
  T/C: 101 % of control

## O=S(=O)(c1ccc(NC(=S)N2CCCCC2)cc1)N1CCCCC1
[12]
  T/C: 95 % of control
[13]
  T/C: 88 % of control
[14]
  T/C: 86 % of control

## CNc1ccccc1C(=O)NNC(=O)Nc1ccc(SC)cc1
dose: 50.0 mg/kg/injection, schedule: Q01DX009 (ip), vehicle: saline with Tween-80
  T/C: 103 % of control
[7]
  T/C: 97 % of control
[8]
  T/C: 100 % of control

## OCCCN(CCCO)CCN(CCCO)CCCO
dose: 100.0 mg/kg/injection, schedule: Q04DX003 (ip), vehicle: saline
  T/C: 97 % of control
dose: 200.0 mg/kg/injection, schedule: Q04DX003 (ip), vehicle: saline
  T/C: 97 % of control
dose: 400.0 mg/kg/injection, schedule: Q04DX003 (ip), vehicle: saline
  T/C: 87 % of control

## Nc1cc2c(c[n+](CCCCCCCC[n+]3cc4c5ccccc5c(N)cc4c4ccccc43)c3ccccc23)c2ccccc12
dose: 1.56 mg/kg/injection, schedule: Q04DX003 (ip), vehicle: other
  T/C: 161 % of control
dose: 3.13 mg/kg/injection, schedule: Q04DX003 (ip), vehicle: other
  T/C: 158 % of control and 161 % of control
dose: 6.25 mg/kg/injection, schedule: Q04DX003 (ip), vehicle: other
  T/C: 152 % of control and 205 % of control
dose: 12.5 mg/kg/injection, schedule: Q04DX003 (ip), vehicle: other
  T/C: 168 % of control
dose: 25.0 mg/kg/injection, schedule: Q04DX003 (ip), vehicle: other
  T/C: 93 % of control
dose: 50.0 mg/kg/injection, schedule: Q04DX003 (ip), vehicle: other
  T/C: 86 % of control

## CCN(c1ccccc1)c1cc(=O)nc2ccccn12
[1]
  T/C: 107 % of control
[2]
  T/C: 105 % of control
[3]
  T/C: 104 % of control

## CCCCCCCCCCCCCCCCCCN(C)C
dose: 25.0 mg/kg/injection, schedule: Q01DX009 (ip), vehicle: Klucel (hydroxypropylcellulose) (HPC)
  T/C: 100 % of control
[12]
  T/C: 101 % of control

## c1ccc(C(c2ccccc2)(c2cccs2)N2CCCCC2)cc1
dose: 100.0 mg/kg/injection, schedule: Q01DX001 (ip), vehicle: Klucel (hydroxypropylcellulose) (HPC)
  T/C: 99 % of control
dose: 200.0 mg/kg/injection, schedule: Q01DX001 (ip), vehicle: Klucel (hydroxypropylcellulose) (HPC)
  T/C: 94 % of control
dose: 400.0 mg/kg/injection, schedule: Q01DX001 (ip), vehicle: Klucel (hydroxypropylcellulose) (HPC)
  T/C: 96 % of control

## CC(C)=COS(=O)(=O)C(F)(F)F
dose: 50.0 mg/kg/injection, schedule: Q01DX009 (ip), vehicle: olive oil, sesame oil, peanut oil
  T/C: 99 % of control
dose: 100.0 mg/kg/injection, schedule: Q01DX009 (ip), vehicle: olive oil, sesame oil, peanut oil
  T/C: 96 % of control
dose: 200.0 mg/kg/injection, schedule: Q01DX009 (ip), vehicle: olive oil, sesame oil, peanut oil
  T/C: 90 % of control

## OC1C(CCl)OC(OC2(CCl)OC(CCl)C(O)C2O)C(O)C1O (stereo not given)
[12]
  T/C: 94 % of control
[13]
  T/C: 109 % of control
[14]
  T/C: 110 % of control
